The test system of series [1] is brown rust (Puccinia recondita). Kind of series: Action on wheat brown rust. In kind it is in vivo, Puccinia recondita on wheat seedlings ("Kanzler"). The settings on record: 0.025 wt % spray liquors; sprayed 24 h after infection; assessed after 8 days. As for the experimental part: Leaves of pot-grown wheat seedlings of the “Kanzler” variety were dusted with spores of brown rust (Puccinia recondita). The pots were then placed for 24 hours at 20° to 22° C. in a high-humidity (90-95%) chamber. During this period the spores germinated and the germ tubes penetrated the leaf tissue. […] After the sprayed-on layer had dried, the plants were set up in the greenhouse at 20° to 22° C. and a relative humidity of 65 to 70%. The extent of rust fungus spread on the leaves was assessed after 8 days.

A further series deals with Plasmopara viticola. Kind of series: Action on Peronospora in grapes. The settings on record: 0.025 wt % spray liquors; leaves infected 8 days after spraying.
Another series has as its system Pyricularia oryzae. It is filed as in vivo, Pyricularia oryzae on rice seedlings ("Bahia"). Particulars: 0.05 wt % spray liquors; protective, inoculated 24 hours after spraying; assessed after 6 days.
In series [2] the test system is Plutella maculipennis (diamondback moth). Put plainly: Plutella maculipennis (diamondback moth); ingestion-inhibiting action. In kind it is in vivo. Particulars: Plutella maculipennis 4th-stage caterpillars on dipped kohlrabi leaves, after 48 hours. On the procedure: Young kohlrabi leaves are dipped for 3 seconds into aqueous solutions of the candidate compounds, and then placed on a round filter paper 9 cm in diameter which has been moistened with 0.5 ml of water. The filter paper is then placed in a Petri dish 10 cm in diameter. 10 caterpillars in the 4th larval stage are then placed on each leaf and the Petri dish is closed. Ingestion inhibition is determined in % after 48 hours.

The subject of series [3] is Musca domestica (housefly). Kind of series: Musca domestica (housefly); continuous contact action. It is filed as in vivo. The settings on record: continuous contact in Petri dish, counted after 24 hours. On the procedure:
Both the tops and bottoms of Petri dishes 10 cm in diameter were lined with a total of 1 ml of acetonic solutions of the active ingredients. After the solvent had evaporated (about 30 mins.), 10 files and absorbent cotton steeped in water were introduced into each dish and the dishes closed. The flies in supine position were counted after 24 hours.
If a kill rate of 80 to 100% occurs at a concentration of 0.01 mg/dish, the test is continued with falling concentrations.

Molecules are shown by their SMILES.

Consider 44 compounds from USRE37839E1, “O-benzyloxime ethers and crop protection agents containing these compounds” (BASF Aktiengesellschaft, priority 1990, dated 2002).

Experimental for Plasmopara viticola: Leaves of potted vines of the “Müller Thurgau” variety were sprayed with aqueous liquors containing (dry basis) 80% of active ingredient and 20% of emulsifier. To assess the duration of action of the active ingredients, the plants were, after the sprayed-on layer had dried, set up in the greenhouse for 8 days. Only then were the leaves infected with a zoospore suspension of Plasmopara viticola. The vines were then placed for 48 hours in a water-vapor-saturated chamber at 24° C. and then for 5 days in a greenhouse at from 20° to 30° C. To accelerate the sporangiophore discharge, the plants were then again set up in the moist chamber for 16 hours. The extent to which the leaves had been attacked was then assessed.

For `COC=C(C(=O)OC)c1ccccc1CON=C(c1ccccc1)C1CC1` [14 (Table I)], the fungicidal action (in series [1]; with Plasmopara viticola) was 95% throughout.

In the case of `COC=C(C(=O)OC)c1ccccc1CON=C(c1ccc(Cl)cc1)C1CC1` [16 (Table I)], the fungicidal action (in series [1]; with Plasmopara viticola) was 95% each time. Turning to `COC=C(C(=O)OC)c1ccccc1CON=C(c1ccc(OC)cc1)C1CC1` [17 (Table I)], the fungicidal action (in series [1]; in the series with Plasmopara viticola) was 95% each time. Consider `CON=C(C(=O)OC)c1ccccc1CON=C(c1ccc(OC)cc1)C1CC1` [17 (Table II)], for which the fungicidal action in series [1] came to 95%; with Plasmopara viticola, 95%; in the series with Pyricularia oryzae it was 100%. Consider `COC=C(C(=O)OC)c1ccccc1CON=C(C#N)C(C)C` [49 (Table I)], for which the fungicidal action (in series [1]; in the series with Plasmopara viticola) was 95% in each case. For `COC=C(C(=O)OC)c1ccccc1CON=C(C#N)OC1CCCCO1` (stereo not drawn) [429 (Table I)], the values for the fungicidal action (in series [1]; in the series on Plasmopara viticola; with Pyricularia oryzae) were 95%, 95% and 100%, respectively. `COC=C(C(=O)OC)c1ccccc1CON=C(C)c1cccc(C)c1` [616 (Table I)]: the fungicidal action worked out at 95% in series [1], 95% in the series on Plasmopara viticola and 100% with Pyricularia oryzae. Consider `CON=C(C(=O)OC)c1ccccc1COc1ccccc1` [A, 2-(phenoxymethyl)-phenylglyoxylic acid-methyl ester-O-methyloxime, reference compound], for which the fungicidal action (in series [1]; in the series with Plasmopara viticola) was 50% throughout. As to `COC=C(C(=O)OC)c1ccccc1CON=C(c1ccc(F)cc1)C1CC1` [Compound no. 15 (Table I)], the fungicidal action (in series [1]; with Plasmopara viticola) was 95% each time. As for `CON=C(C(=O)OC)c1ccccc1CON=C(c1ccc(F)cc1)C1CC1` [Compound no. 15 (Table II)], the fungicidal action with Plasmopara viticola stood at 95%; in the series with Pyricularia oryzae, 100%. On the same counts, the results for `CON=C(C(=O)OC)c1ccccc1CON=C(c1ccc(Cl)cc1)C1CC1` [Compound no. 16 (Table II)] are 95% and 100%. The compound `CON=C(C(=O)OC)c1ccccc1CON=C(C#N)C(C)(C)OC` [Compound no. 36 (Table II)] registered a fungicidal action in the series on Plasmopara viticola of 95%. On the same count and under the same terms, the figure for `CON=C(C(=O)OC)c1ccccc1CON=C(C#N)C(C)(C)SC` [Compound no. 43 (Table II)] is 95%. The same measure, in the same setting: as for `CON=C(C(=O)OC)c1ccccc1CON=C(C#N)C(C)C` [Compound no. 49 (Table II)], the figure is 95%; as for `CON=C(C(=O)OC)c1ccccc1CON=C(C#N)C1CC1` [Compound no. 56 (Table II)], 95%. Same read-out and setting: as for `CON=C(C(=O)OC)c1ccccc1CON=C(C#N)c1ccccc1` [Compound no. 117 (Table II)], the figure is 95%. Compound `COC=C(C(=O)OC)c1ccccc1CON=C(C#N)c1ccc(F)c(Cl)c1` [Compound no. 156 (Table I)] came in with a fungicidal action with Plasmopara viticola of 95%. On the same count and under the same terms, the figure for `CON=C(C(=O)OC)c1ccccc1CON=C(C#N)OC1CCCCO1` (stereo not drawn) [Compound no. 429 (Table II)] is 95%. For `CON=C(C(=O)OC)c1ccccc1CON=C(C)c1ccc(F)cc1` [Compound no. 571 (Table II)], the fungicidal action with Pyricularia oryzae stood at 100%.

For the compound `COC=C(C(=O)OC)c1ccccc1CON=C(C)c1ccccc1Cl` [Compound no. 573 (Table I)], the fungicidal action (in series [1]; in the series on Plasmopara viticola) was 95% each time. `COC=C(C(=O)OC)c1ccccc1CON=C(C)c1ccc(Cl)cc1Cl` [Compound no. 578 (Table I)]: the fungicidal action (in series [1]; with Plasmopara viticola) was 95% throughout.

Turning to `COC=C(C(=O)OC)c1ccccc1CON=C(C)c1cc(Cl)ccc1Cl` [Compound no. 579 (Table I)], the fungicidal action in the series on Plasmopara viticola stood at 95%. Turning to `COC=C(C(=O)OC)c1ccccc1CON=C(C)c1cc(Cl)cc(Cl)c1` [Compound no. 582 (Table I), Methyl 3-methoxy-2-[2′-[1″-(3′″,5′″-dichlorophenyl)-1″-methyl]-iminooxymethyl]-phenylacrylate], the fungicidal action (in series [1]; in the series with Plasmopara viticola) was 95% in each case. Regarding `CON=C(C(=O)OC)c1ccccc1CON=C(C)c1cc(Cl)cc(Cl)c1` [Compound no. 582 (Table II), Methyl 2-methoximino-2-[2′-(1″-(3′″,5′″-dichlorophenyl)-1″-methyl)-iminooxymethyl]-phenylacetate], the fungicidal action in the series with Plasmopara viticola is 95%; in the series with Pyricularia oryzae, 100%. Consider `COC=C(C(=O)OC)c1ccccc1CON=C(C)c1ccc(Cl)c(Cl)c1Cl` [Compound no. 583 (Table I)], for which the fungicidal action with Plasmopara viticola was 95%; in the series on Pyricularia oryzae it was 100%. In the series on Pyricularia oryzae, `CON=C(C(=O)OC)c1ccccc1CON=C(C)c1ccc(Cl)c(Cl)c1Cl` [Compound no. 583 (Table II)] registered a fungicidal action of 100%. In the case of `COC=C(C(=O)OC)c1ccccc1CON=C(C)c1cccc(Br)c1` [Compound no. 592 (Table I)], the results for the fungicidal action (in series [1]; in the series with Plasmopara viticola; with Pyricularia oryzae) were 95%, 95% and 100%, respectively. Turning to `CON=C(C(=O)OC)c1ccccc1CON=C(C)c1cccc(Br)c1` [Compound no. 592 (Table II)], in the series with Pyricularia oryzae, the fungicidal action amounted to 100%. In the case of `COC=C(C(=O)OC)c1ccccc1CON=C(C)c1ccc(Br)cc1` [Compound no. 593 (Table I), Methyl 3-methoxy-2-[2′-(1″-(4′″-bromophenyl)-1″-methyl)-iminooxymethyl]-phenylacrylate], the fungicidal action with Plasmopara viticola is 95%; in the series with Pyricularia oryzae it was 100%. In the series on Plasmopara viticola, `CON=C(C(=O)OC)c1ccccc1CON=C(C)c1ccc([N+](=O)[O-])cc1` [Compound no. 614 (Table II), Methyl 2-methoximino-2-[2′-(1″-(4′″-nitrophenyl)-1″-methyl)-iminooxymethyl]-phenylacetate] had a fungicidal action of 95%. With `CON=C(C(=O)OC)c1ccccc1CON=C(C)c1ccc(C(C)(C)C)cc1` [Compound no. 644 (Table II)], the fungicidal action in series [1] is reported as 95%; in the series with Plasmopara viticola, 95%; in the series on Pyricularia oryzae it was 100%. As to `COC=C(C(=O)OC)c1ccccc1CON=C(C)c1ccccc1C(F)(F)F` [Compound no. 704 (Table I)], the fungicidal action (in series [1]; in the series with Plasmopara viticola) was 95% in each case. Turning to `COC=C(C(=O)OC)c1ccccc1CON=C(C)c1cccc(C(F)(F)F)c1` [Compound no. 705 (Table I)], the fungicidal action (in series [1]; in the series on Plasmopara viticola) was 95% in each case. Regarding `COC=C(C(=O)OC)c1ccccc1CON=C(C)c1ccc(C(F)(F)F)cc1` [Compound no. 706 (Table I)], the fungicidal action in the series with Plasmopara viticola is reported as 95%; with Pyricularia oryzae, 100%. `CON=C(C(=O)OC)c1ccccc1CON=C(C)c1ccc(Oc2ccccc2)cc1` [Compound no. 769 (Table II)] had a fungicidal action with Pyricularia oryzae of 100%. Still for that read-out and setting: as for `CON=C(C(=O)OC)c1ccccc1CON=C(C)c1ccc(C2CCCCC2)cc1` [Compound no. 782 (Table II)], the figure is 100%. In turn, `COC=C(C(=O)OC)c1ccccc1CON=C(c1ccc(Cl)cc1)C1CC1` [compound 16] displayed a Mortality in % in series [2] (application rate 400 ppm) of 80%.

As to `COC=C(C(=O)OC)c1ccccc1CON=C(C#N)C(C)(C)OC` [compound 36], the Mortality in % in series [3] (application rate 1.0 ppm) and in series [2] (application rate 200 ppm) was 80% each time. In turn, `CCOC(C)(C)C(C#N)=NOCc1ccccc1C(=COC)C(=O)OC` [compound 37] yielded a Mortality in % in series [3] (application rate 0.1 ppm) of 100%. For `COC=C(C(=O)OC)c1ccccc1CON=C(C#N)C(C)C` [compound 49], the Mortality in % in series [3] (application rate 0.1 ppm) and in series [2] (application rate 200 ppm) was 80% throughout. `COC=C(C(=O)OC)c1ccccc1CON=C(C#N)OC1CCCCO1` (stereo not drawn) [compound 429] displayed a Mortality in % in series [2] (application rate 1000 ppm) of 80%.

As to `COC=C(C(=O)OC)c1ccccc1CON=C(C)c1cc(Cl)cc(Cl)c1` [compound 582], the Mortality in % in series [3] (application rate 0.1 ppm) is listed as 80%; in series [2] (application rate 400 ppm), 100%.

The compound `COC=C(C(=O)OC)c1ccccc1CON=C(C)c1cccc(Br)c1` [compound 592] came in with a Mortality in % in series [2] (application rate 400 ppm) of 80%. On to `COC=C(C(=O)OC)c1ccccc1CON=C(C)c1ccc(Br)cc1` [compound 593], for which the figures for the Mortality in % in series [3] (application rate 0.1 ppm) and in series [2] (application rate 1000 ppm) were 60% and 80%, respectively.
